This note sets out measurements from US11427548B2 (Arvinas Operations, Inc., priority 2015, dated 2022).

The target of experiment [1] is T1, Androgen Receptor (Homo sapiens, UniProt P10275).
T1 construct: endogenous in cells; host or cells: VCaP cells
T1 sequence (P10275 1-920): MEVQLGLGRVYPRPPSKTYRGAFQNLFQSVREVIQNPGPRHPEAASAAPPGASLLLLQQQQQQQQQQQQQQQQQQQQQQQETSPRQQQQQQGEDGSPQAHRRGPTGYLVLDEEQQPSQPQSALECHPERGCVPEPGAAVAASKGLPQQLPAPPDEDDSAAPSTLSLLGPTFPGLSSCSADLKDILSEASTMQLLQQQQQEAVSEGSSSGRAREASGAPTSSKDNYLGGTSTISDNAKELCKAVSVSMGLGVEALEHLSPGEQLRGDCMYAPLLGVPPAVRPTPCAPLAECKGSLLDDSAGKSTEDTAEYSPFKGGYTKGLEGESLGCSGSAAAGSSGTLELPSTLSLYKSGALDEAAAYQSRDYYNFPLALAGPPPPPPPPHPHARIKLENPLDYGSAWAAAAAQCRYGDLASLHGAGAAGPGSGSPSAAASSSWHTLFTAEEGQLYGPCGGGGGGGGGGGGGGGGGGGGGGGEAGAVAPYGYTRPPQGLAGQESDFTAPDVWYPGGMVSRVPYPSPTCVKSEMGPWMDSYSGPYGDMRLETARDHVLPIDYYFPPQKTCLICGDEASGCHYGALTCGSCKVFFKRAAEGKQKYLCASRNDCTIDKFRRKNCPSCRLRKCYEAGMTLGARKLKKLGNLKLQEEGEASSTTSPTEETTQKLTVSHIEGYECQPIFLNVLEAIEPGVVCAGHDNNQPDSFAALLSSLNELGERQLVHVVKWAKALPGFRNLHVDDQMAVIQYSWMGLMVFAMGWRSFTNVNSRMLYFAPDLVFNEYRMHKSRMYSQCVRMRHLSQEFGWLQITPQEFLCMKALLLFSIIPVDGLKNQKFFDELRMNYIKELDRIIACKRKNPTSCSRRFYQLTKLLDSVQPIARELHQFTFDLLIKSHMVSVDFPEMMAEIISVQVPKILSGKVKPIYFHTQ
Kind of experiment: Androgen Receptor ELISA assay (PathScan AR ELISA) in VCaP cells: AR degradation, Dmax and DC50. Format: cell-based. The essentials: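 VCaP cells, 30,000/well, grown ≥3 days in phenol red-free RPMI with 5% charcoal-stripped FBS; compound added in 0.1% DMSO with 0.1 nM R1881, 7 half-log doses, 24 h. Lysate AR quantified by PathScan sandwich ELISA, HRP/TMB read at 450 nm, giving DC50 and Dmax.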

Experiment [2] deals with T2, Androgen Receptor (Homo sapiens, UniProt P10275+P40337, T878A).
T2 construct: Compounds have been evaluated in this assay in LNCaP and/or VCaP cells utilizing similar protocols; endogenous in cells; host or cells: LNCaP cells
T2 sequence (P10275 whole entry T878A): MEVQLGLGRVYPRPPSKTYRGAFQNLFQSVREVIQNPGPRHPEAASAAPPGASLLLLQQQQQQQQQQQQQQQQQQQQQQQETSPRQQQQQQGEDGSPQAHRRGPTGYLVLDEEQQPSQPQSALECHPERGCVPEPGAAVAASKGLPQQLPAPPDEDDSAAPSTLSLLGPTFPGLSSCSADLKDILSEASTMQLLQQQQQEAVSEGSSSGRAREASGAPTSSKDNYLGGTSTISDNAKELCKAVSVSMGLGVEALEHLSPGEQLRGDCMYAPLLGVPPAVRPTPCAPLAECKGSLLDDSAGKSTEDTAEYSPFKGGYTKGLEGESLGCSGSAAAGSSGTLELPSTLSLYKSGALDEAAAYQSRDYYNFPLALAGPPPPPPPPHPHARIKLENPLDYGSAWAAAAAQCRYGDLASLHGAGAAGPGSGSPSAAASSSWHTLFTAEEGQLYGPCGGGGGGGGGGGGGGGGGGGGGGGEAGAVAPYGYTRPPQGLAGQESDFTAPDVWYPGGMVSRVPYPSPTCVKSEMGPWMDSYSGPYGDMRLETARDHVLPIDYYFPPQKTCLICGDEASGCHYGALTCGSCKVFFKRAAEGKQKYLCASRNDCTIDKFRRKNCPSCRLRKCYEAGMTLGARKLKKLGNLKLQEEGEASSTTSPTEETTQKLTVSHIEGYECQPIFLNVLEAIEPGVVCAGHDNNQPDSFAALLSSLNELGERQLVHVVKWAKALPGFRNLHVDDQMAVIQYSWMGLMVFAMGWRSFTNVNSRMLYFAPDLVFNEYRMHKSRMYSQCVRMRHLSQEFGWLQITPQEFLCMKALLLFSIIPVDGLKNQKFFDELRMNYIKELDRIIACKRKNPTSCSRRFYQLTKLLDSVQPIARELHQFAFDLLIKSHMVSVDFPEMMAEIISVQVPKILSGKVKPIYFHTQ
T2 sequence (P40337 whole entry): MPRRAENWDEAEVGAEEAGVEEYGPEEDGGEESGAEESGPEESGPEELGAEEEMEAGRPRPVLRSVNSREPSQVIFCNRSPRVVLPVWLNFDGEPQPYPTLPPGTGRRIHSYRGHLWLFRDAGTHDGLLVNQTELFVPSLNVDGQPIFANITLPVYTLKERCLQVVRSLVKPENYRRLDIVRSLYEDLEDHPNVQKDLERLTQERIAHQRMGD
T2 sequence (Q15369 whole entry partner): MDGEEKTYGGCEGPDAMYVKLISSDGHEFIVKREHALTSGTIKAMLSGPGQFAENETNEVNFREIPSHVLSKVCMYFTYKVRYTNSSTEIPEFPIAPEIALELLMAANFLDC
T2 sequence (Q15370 whole entry partner): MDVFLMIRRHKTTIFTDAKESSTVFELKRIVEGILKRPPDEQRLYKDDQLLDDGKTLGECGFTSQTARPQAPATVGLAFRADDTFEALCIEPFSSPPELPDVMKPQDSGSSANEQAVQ
The experiment can be described thus: Androgen Receptor ELISA assay (PathScan AR ELISA) in LNCaP cells: AR degradation, Dmax and DC50. It is filed as cell-based. The conditions noted are these: for DC50: concentration that caused 50% Androgen Receptor degradation; for Dmax: highest percentage of Androgen Receptor degradation observed. In general terms: An ELISA detects its analyte on a solid surface through an enzyme-linked reagent.

[3] abbreviates: read-out: VCaP DC50; concentration that caused 50% Androgen Receptor degradation, VCaP cells.
Where [4] appears, read: VCaP, highest percentage of Androgen Receptor degradation observed, VCaP cells; read-out: VCaP Dmax (%).
Where [5] appears, read: concentration that caused 50% Androgen Receptor degradation, VCaP cells; read-out: VCaP DC50.

Like-named read-outs stand apart in the source and are kept apart here.

The Dmax is the greatest extent of degradation seen. The DC50 is the concentration at which degradation of the target reaches its halfway point. For the compound `Cc1ncsc1-c1ccc(CNC(=O)[C@@H]2C[C@@H](O)CN2C(=O)[C@@H](NC(=O)COCCCOCCCCOc2ccc(N3C(=S)N(c4ccc(C#N)c(C(F)(F)F)c4)C(=O)C3(C)C)cc2F)C(C)(C)C)cc1` [Example 27, (2S,4R)-1-[(2S)-2-(2-{3-[4-(4-{3-[4-cyano-3-(trifluoromethyl)phenyl]-5,5-dimethyl-4-oxo-2-sulfanylideneimidazolidin-1-yl}-2-fluorophenoxy)butoxy]propoxy}acetamido)-3,3-dimethylbutanoyl]-4-hydroxy-N-{[4-(4-methyl-1,3-thiazol-5-yl)phenyl]methyl}pyrrolidine-2-carboxamide], the Dmax is over 71% in experiment [1] (VCaP, read-out: VCaP Dmax (%)) and over 71% in experiment [2]. For the same compound, the 50% degradation concentration (DC50) in experiment [1] (setting [3]) and in experiment [2] was under 50 nM each time.

Regarding `Cc1ncsc1-c1ccc(CNC(=O)[C@@H]2C[C@@H](O)CN2C(=O)[C@@H](NC(=O)COCCCOCCCCOc2ccc(N3C(=S)N(c4ccc(C#N)c(C(F)(F)F)c4)C(=O)C3(C)C)cc2)C(C)(C)C)cc1` [Example 28, (2S,4R)-1-[(2S)-2-(2-{3-[4-(4-{3-[4-cyano-3-(trifluoromethyl)phenyl]-5,5-dimethyl-4-oxo-2-sulfanylideneimidazolidin-1-yl}phenoxy)butoxy]propoxy}acetamido)-3,3-dimethylbutanoyl]-4-hydroxy-N-{[4-(4-methyl-1,3-thiazol-5-yl)phenyl]methyl}pyrrolidine-2-carboxamide], the Dmax was 51 to 70% in experiment [1] (VCaP, read-out: VCaP Dmax (%)) and over 71% in experiment [2]. Moreover, the DC50 in experiment [1] (setting [3]) and in experiment [2] was under 50 nM in each case.

On to `Cc1ncsc1-c1ccc(CNC(=O)[C@@H]2C[C@@H](O)CN2C(=O)[C@@H](NC(=O)COCCCOCCCCOc2ccc(N3C(=S)N(c4ccc(C#N)c(C(F)(F)F)c4)C(=O)C3(C)C)cc2)C(C)C)cc1` [Example 29, (2S,4R)-1-[(2S)-2-(2-{3-[4-(4-{3-[4-cyano-3-(trifluoromethyl)phenyl]-5,5-dimethyl-4-oxo-2-sulfanylideneimidazolidin-1-yl}phenoxy)butoxy]propoxy}acetamido)-3-methylbutanoyl]-4-hydroxy-N-{[4-(4-methyl-1,3-thiazol-5-yl)phenyl]methyl}pyrrolidine-2-carboxamide], for which the Dmax fell in the range of 51 to 70% in experiment [1] (VCaP, read-out: VCaP Dmax (%)) and 51 to 70% in experiment [2]. Moreover, the half-maximal degradation concentration (DC50) in experiment [2] is 51 to 500 nM.

As to `Cc1ncsc1-c1ccc(CNC(=O)[C@@H]2C[C@@H](O)CN2C(=O)[C@@H](NC(=O)COCCCOCCCCOc2ccc(N3C(=S)N(c4cnc(C#N)c(C(F)(F)F)c4)C(=O)C3(C)C)cc2)C(C)(C)C)cc1` [Example 30, (2S,4R)-1-[(2S)-2-(2-{3-[4-(4-{3-[6-cyano-5-(trifluoromethyl)pyridin-3-yl]-5,5-dimethyl-4-oxo-2-sulfanylideneimidazolidin-1-yl}phenoxy)butoxy]propoxy}acetamido)-3,3-dimethylbutanoyl]-4-hydroxy-N-{[4-(4-methyl-1,3-thiazol-5-yl)phenyl]methyl}pyrrolidine-2-carboxamide], the maximal degradation (Dmax) in experiment [1] (setting [4]) and in experiment [2] was over 71% each time. In addition, the DC50 in experiment [1] (setting [5]) and in experiment [2] was under 50 nM each time.

For the compound `Cc1ncsc1-c1ccc(CNC(=O)[C@@H]2C[C@@H](O)CN2C(=O)[C@@H](NC(=O)COCCCOCCCCOc2ccc(N3C(=S)N(c4ccc(C#N)c(Cl)c4)C(=O)C3(C)C)cc2)C(C)(C)C)cc1` [Example 31, (2S,4R)-1-[(2S)-2-{2-[3-(4-{4-[3-(3-chloro-4-cyanophenyl)-5,5-dimethyl-4-oxo-2-sulfanylideneimidazolidin-1-yl]phenoxy}butoxy)propoxy]acetamido}-3,3-dimethylbutanoyl]-4-hydroxy-N-{[4-(4-methyl-1,3-thiazol-5-yl)phenyl]methyl}pyrrolidine-2-carboxamide], the Dmax in experiment [1] (VCaP, read-out: VCaP Dmax (%)) was over 71%; in experiment [2] it was over 71%. Moreover, the DC50 in experiment [1] (setting [3]) and in experiment [2] was under 50 nM throughout.

Regarding `COc1cc(N2C(=O)C(C)(C)N(c3ccc(OCCCCOCCCOCC(=O)N[C@H](C(=O)N4C[C@H](O)C[C@H]4C(=O)NCc4ccc(-c5scnc5C)cc4)C(C)(C)C)cc3)C2=S)ccc1C#N` [Example 32, (2S,4R)-1-[(2S)-2-{2-[3-(4-{4-[3-(4-cyano-3-methoxyphenyl)-5,5-dimethyl-4-oxo-2-sulfanylideneimidazolidin-1-yl]phenoxy}butoxy)propoxy]acetamido}-3,3-dimethylbutanoyl]-4-hydroxy-N-{[4-(4-methyl-1,3-thiazol-5-yl)phenyl]methyl}pyrrolidine-2-carboxamide], the maximal degradation (Dmax) in experiment [1] (setting [4]) was 51 to 70%; in experiment [2] it was over 71%. For the same compound, the DC50 in experiment [1] (setting [5]) and in experiment [2] was under 50 nM in each case.

With `Cc1ncsc1-c1ccc(CNC(=O)[C@@H]2C[C@@H](O)CN2C(=O)[C@@H](NC(=O)COCCCCOCCCOc2ccc(N3C(=S)N(c4ccc(C#N)c(C(F)(F)F)c4)C(=O)C3(C)C)cc2)C(C)(C)C)cc1` [Example 52, (2S,4R)-1-[(2S)-2-(2-{4-[3-(4-{3-[4-cyano-3-(trifluoromethyl)phenyl]-5,5-dimethyl-4-oxo-2-sulfanylideneimidazolidin-1-yl}phenoxy)propoxy]butoxy}acetamido)-3,3-dimethylbutanoyl]-4-hydroxy-N-{[4-(4-methyl-1,3-thiazol-5-yl)phenyl]methyl}pyrrolidine-2-carboxamide], the Dmax in experiment [1] (VCaP, read-out: VCaP Dmax (%)) was over 71%; in experiment [2] it was over 71%. The DC50 in experiment [1] (setting [3]) and in experiment [2] was under 50 nM throughout.

Consider `Cc1ncsc1-c1ccc(CNC(=O)[C@@H]2C[C@@H](O)CN2C(=O)[C@@H](NC(=O)COCC#CC#CCOc2ccc(N3C(=S)N(c4ccc(C#N)c(C(F)(F)F)c4)C(=O)C3(C)C)cc2)C(C)(C)C)cc1` [Example 54, (2S,4R)-1-((S)-2-(2-(6-(4-(3-(4-cyano-3-(trifluoromethyl)phenyl)-5,5-dimethyl-4-oxo-2-thioxoimidazolidin-1-yl)phenoxy)hexa-2,4-diynyloxy)acetamido)-3,3-dimethylbutanoyl)-4-hydroxy-N-(4-(4-methylthiazol-5-yl)benzyl)pyrrolidine-2-carboxamide], for which, in experiment [1] (VCaP, read-out: VCaP Dmax (%)), the Dmax was over 71%. For the same compound, in experiment [2], the DC50 is over 501 nM and the Dmax is under 25%.

For `Cc1ncsc1-c1ccc(CNC(=O)[C@@H]2C[C@@H](O)CN2C(=O)[C@@H](NC(=O)CCOCC#CC#CCOc2ccc(N3C(=S)N(c4ccc(C#N)c(C(F)(F)F)c4)C(=O)C3(C)C)cc2)C(C)(C)C)cc1` [Example 55, (2S,4R)-1-[(2S)-2-(3-{[6-(4-{3-[4-cyano-3-(trifluoromethyl)phenyl]-5,5-dimethyl-4-oxo-2-sulfanylideneimidazolidin-1-yl}phenoxy)hexa-2,4-diyn-1-yl]oxy}propanamido)-3,3-dimethylbutanoyl]-4-hydroxy-N-{[4-(4-methyl-1,3-thiazol-5-yl)phenyl]methyl}pyrrolidine-2-carboxamide], the Dmax in experiment [1] (VCaP, read-out: VCaP Dmax (%)) lay within 51 to 70%. In experiment [2], the 50% degradation concentration (DC50) is over 501 nM and the Dmax was in the range of 26 to 50%.

As for `Cc1ncsc1-c1ccc(CNC(=O)[C@@H]2C[C@@H](O)CN2C(=O)[C@@H](NC(=O)CCCOCC#CC#CCOc2ccc(N3C(=S)N(c4ccc(C#N)c(C(F)(F)F)c4)C(=O)C3(C)C)cc2)C(C)(C)C)cc1` [Example 56, (2S,4R)-1-[(2S)-2-(4-{[6-(4-{3-[4-cyano-3-(trifluoromethyl)phenyl]-5,5-dimethyl-4-oxo-2-sulfanylideneimidazolidin-1-yl}phenoxy)hexa-2,4-diyn-1-yl]oxy}butanamido)-3,3-dimethylbutanoyl]-4-hydroxy-N-{[4-(4-methyl-1,3-thiazol-5-yl)phenyl]methyl}pyrrolidine-2-carboxamide], the Dmax in experiment [1] (VCaP, read-out: VCaP Dmax (%)) is under 25%. In experiment [2], this compound registered a DC50 of over 501 nM and a Dmax of 26 to 50%.
